Tests used:
[1] = system: M. para. isolated from resected tissue of CD patients; experiment: in vitro test of seven antituberculosis drugs against M. para. (Bactec system); format: cell-based, Mycobacterium paratuberculosis; parameters: key to Status: R, resistant; S, sensitive; details: for IC99.9: 99.9% M. para. cells inhibited or killed, Bactec system, combinations given as drug:drug, read-out: MIC99.9; for Status: M. para. resistant or sensitive to the drug
Crohn's disease [2] = experiment: comparison of age-matched MAP-positive and MAP-negative patients at 1 year (CDAI); format: in vivo, human; details: patients unresponsive to antibiotics, MAP-negative group
From the text: Another study was undertaken to compare age-matched MAP-positive and -negative patients utilizing ELISA analysis for serum antibodies to MAP. 10 MAP-positive and 10 MAP-negative patients were compared at 1 year, utilizing the CDAI score as a primary endpoint. The elimination of corticosteroids and the need for immunotherapy were considered secondary endpoints. The MAP-positive patients achieved complete remission in 9 out of the 10 cases, with entry CDAI score of 285 and exit score of 111. Steroids were eliminated in 8 of 10 patients, with 2 patients requiring low-dose steroids. In the MAP-negative group at 1 year, 6 of 10 patients were in complete remission, with an entry CDAI score of 308 and an exit score of 179. Of the responsive patients, 3 of 6 required additional immunotherapy, and 3 remained on antibiotics alone.

Crohn's disease [3] = details: cited from earlier work

NC[C@H]1O[C@H](O[C@H]2[C@H](O)[C@@H](O[C@H]3O[C@H](CO)[C@@H](O)[C@H](N)[C@H]3O)[C@H](N)C[C@@H]2N)[C@H](O)[C@@H](O)[C@@H]1O [KM, kanamycin]
IC99.9 [1]: < 3 µg/mL
Status [1]: R

NNC(=O)c1ccncc1 [INH, isoniazid]
IC99.9 [1]: > 20 µg/mL
Status [1]: R

CO[C@H]1/C=C/O[C@@]2(C)Oc3c(C)c(O)c4c(O)c(c(/C=N/N5CCN(C)CC5)c(O)c4c3C2=O)NC(=O)/C(C)=C\C=C\[C@H](C)[C@H](O)[C@@H](C)[C@@H](O)[C@@H](C)[C@H](OC(C)=O)[C@@H]1C [RIF, Rifampicin]
IC99.9 [1]: > 2.6 µg/mL
Status [1]: R

NC(=O)c1cnccn1 [PZA, pyrazinamide]
IC99.9 [1]: > 20 µg/mL
Status [1]: R

CC[C@@H](CO)NCCN[C@@H](CC)CO [EMB, ethambutol]
IC99.9 [1]: < 3 µg/mL
Status [1]: S

[H]/N=C(/N)N[C@H]1[C@H](O)[C@@H](O)[C@H](O[C@@H]2O[C@@H](C)[C@](O)(C=O)[C@H]2O[C@@H]2O[C@@H](CO)[C@H](O)[C@@H](O)[C@@H]2NC)[C@@H](N/C(N)=N\[H])[C@@H]1O [ST, streptomycin]
IC99.9 [1]: > 3 µg/mL
Status [1]: R

infliximab: a monoclonal chimeric antibody to tumor necrosis factor α (TNF-α)
induction of remission (Crohn's disease [2]): induction of remission in all patients
benefit of every 8-week administration (Crohn's disease [3]; over 550 patients with CD, preliminary trial results): maintenance of remission and improved quality of life
complications of the immunosuppresive effects (Crohn's disease [3]; patients treated for CD and rheumatoid arthritis): Documented cases of miliary tuberculosis

CC[C@H]1OC(=O)[C@H](C)[C@@H](O[C@H]2C[C@@](C)(OC)[C@@H](O)[C@H](C)O2)[C@H](C)[C@@H](O[C@@H]2O[C@H](C)C[C@H](N(C)C)[C@H]2O)[C@](C)(OC)C[C@@H](C)C(=O)[C@H](C)[C@@H](O)[C@]1(C)O [CLR, clarithromycin]
IC99.9 [1]: < 1.25 µg/mL
Status [1]: S

Source: patent US20030228642A1, “Crohn's disease treatment and efficacy prediction methods” (priority 2002, published 2003)
